{"source": "paper PMC4031649", "about": "(Cell reports, 2014)", "target": "T1, GGCT (Homo sapiens, UniProt O75223)", "T1 sequence (O75223 1-188)": "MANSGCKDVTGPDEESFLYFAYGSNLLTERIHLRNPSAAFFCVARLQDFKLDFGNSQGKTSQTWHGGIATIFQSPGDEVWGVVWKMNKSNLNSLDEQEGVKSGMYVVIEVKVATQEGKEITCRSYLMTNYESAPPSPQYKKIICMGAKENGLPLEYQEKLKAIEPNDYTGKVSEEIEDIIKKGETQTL", "assay": "thin layer chromatography, ninhydrin", "type": "biochemical", "conditions": "glycine release", "data": [{"smiles": "N[C@@H](CCC(=O)NCC(=O)O)C(=O)O", "note": "[γ-glutamyl-glycine]", "values": [{"measurement": "thin layer chromatography, ninhydrin", "result": "Both GGCT and Botch release glycine by cleavage of γ-glutamyl-glycine"}]}]}
